Data: patent US6413947B1, “Anilide derivative, production and use thereof” (Takeda Chemical Industries, Ltd., priority 1997, dated 2002)

Compound | melting point [°C]
Cc1ccc(-c2cccc(/C=C/C(=O)Nc3ccc(CN4CCCCC4CO)cc3)c2)cc1 (stereo not shown) [Compound 68, (E)-N-[4-[2—(hydroxy-methyl)piperidinomethyl]phenyl]-3—(4-methylphenyl)cinnamamide] | 137 to 139
Cc1ccc(-c2cccc(/C=C/C(=O)Nc3ccc(CN4CCCCC4CCO)cc3)c2)cc1 (stereo not shown) [Compound 69, (E)-N-[4-[2—(2-hydroxyethyl)piperidinomethyl]phenyl]-3—(4-methylphenyl)cinnamamide] | 142 to 143
Cc1ccc(-c2cccc(/C=C/C(=O)Nc3ccc(CN4CCCCC4)cc3)c2)cc1 [Compound 70, (E)-N-[4—(piperidinomethyl)phenyl]-3—(4-methylphenyl)cinnamamide] | 154 to 156
Cc1ccc(-c2cccc(/C=C/C(=O)Nc3ccc(C(O)c4ccccn4)cc3)c2)cc1 (stereo not shown) [Compound 79, (E)-N-[4-[hydroxy(2-pyridyl)methyl]phenyl]-3—(4-methylphenyl)cinnamamide] | 162 to 165
Cc1ccc(-c2cccc(/C=C/C(=O)Nc3ccc(C(O)c4cccc[n+]4[O-])cc3)c2)cc1 (stereo not shown) [Compound 80, (E)-N-[4-[hydroxy(1-oxido-2-pyridyl)methyl]-phenyl]-3—(4-methylphenyl)cinnamamide] | 165 to 167
O=C(C=Cc1cccc(-c2ccccc2)c1)Nc1ccc(CN2CCCCC2)cc1 [Compound 81, 1—(4—(3-phenylcinnamoylamino)-benzyl)piperidine] | 159 to 160
Cc1ccc(-c2ccc3c(c2)C=C(C(=O)Nc2ccc(CSc4ccccc4)cc2)CCO3)cc1 [Compound 82, 7—(4-methylphenyl)-N-(4—(phenyl-thiomethyl)phenyl)-2,3-dihydro-1-benzoxepine-4-carboxamide] | 176 to 177
O=C(C=Cc1cccc(-c2ccc(F)cc2)c1)Nc1ccc(CN2CCCCC2)cc1 [Compound 83, 1—(4—(3—(4-fluoro-phenyl)cinnamoylamino)benzyl)piperidine] | 166 to 167
Cc1ccc(-c2ccc3c(c2)C=C(C(=O)Nc2ccc(CSCc4ccccc4)cc2)CCO3)cc1 [Compound 86, N-(4—(benzylthiomethyl)phenyl)-7—(4-methylphenyl)-2,3-dihydro-1-benzoxepine-4-carboxamide] | 145 to 146
CN1CCCN(C)P1(=O)Cc1ccc(NC(=O)C2=Cc3cc(-c4ccccc4)ccc3CC2)cc1 [Compound 89, 2—(4—(3,4-dihydro-7-phenyl-naphthalene-2-carbonyl-amino)benzyl)-1,3-dimethyl-1,3,2-diazaphosphorinane-2-oxide] | 249 to 250
Cc1ccc(-c2ccc3c(c2)C=C(C(=O)Nc2ccc(CN4CCCCC4)cc2)CCS3)cc1 [Compound 93, 7—(4-methylphenyl)-N-(4-piperidinomethylphenyl)-2,3-dihydro-1-benzothiepine-4-carboxamide] | 203 to 204
Cc1ccc(-c2ccc3c(c2)C=C(C(=O)Nc2ccc(CCN4CCCCC4)cc2)CCO3)cc1 [Compound 99, N-(4—(2-piperidinoethyl)phenyl)-7—(4-methylphenyl)-2,3-dihydro-1-benzoxepine-4-carboxamide] | 201 to 202
Cc1ccc(-c2ccc3c(c2)C=C(C(=O)Nc2ccc(CN(C)C4CCOCC4)cc2)CC(c2ccccc2)O3)cc1 (stereo not shown) [Compound 101, 7—(4-methylphenyl)-2-phenyl-N-(4—((N-tetrahydropyran-4-yl-N-methylamino)methyl)phenyl)-2,3-dihydro-1-benzoxepine-4-carboxamide] | 178 to 179
Cc1ccc(-c2ccc3c(c2)C=C(C(=O)Nc2ccc(CN4CCCCC4)cc2)CC(c2ccccc2)O3)cc1 (stereo not shown) [Compound 102, 7—(4-methylphenyl)-2-phenyl-N-(4—(piperidinomethyl)phenyl)-2,3-dihydro-1-benzoxepine-4-carboxamide] | 210 to 211
Cc1ccc(-c2ccc3c(c2)C=C(C(=O)Nc2ccc(CN(C)C4CCOCC4)cc2)CC(C)O3)cc1 (stereo not shown) [Compound 104, 7—(4-methylphenyl)-2-methyl-N-(4—((N-tetrahydropyran-4-yl-N-methylamino)methyl)phenyl)-2,3-dihydro-1-benzoxepine-4-carboxamide] | 170 to 171
Cc1ccc(-c2ccc3c(c2)C=C(C(=O)Nc2ccc(CN4CCCCC4)cc2)CC(C)O3)cc1 (stereo not shown) [Compound 105, 7—(4-methylphenyl)-2-methyl-N-(4—(piperidinomethyl)phenyl)-2,3-dihydro-1-benzoxepine-4-carboxamide] | 175 to 176
Cc1ccc(-c2ccc3c(c2)C=C(C(=O)Nc2ccc(CS(=O)(=O)C4CCCCC4)cc2)CCO3)cc1 [Compound 107, N-(4—(cyclohexylsulfonylmethyl)phenyl)-7—(4-methylphenyl)-2,3-dihydro-1-benzoxepine-4-carboxamide] | 250 to 251
Cc1ccc(-c2ccc3c(c2)C=C(C(=O)Nc2ccc(C[S+]([O-])c4ccccc4)cc2)CCO3)cc1 (stereo not shown) [Compound 108, 7—(4-methylphenyl)-N-(4—(phenylsulfinylmethyl)phenyl)-2,3-dihydro-1-benzoxepine-4-carboxamide] | 127 to 128
Cc1ccc(-c2ccc3c(c2)C=C(C(=O)Nc2ccc(C[S+]([O-])Cc4ccccc4)cc2)CCO3)cc1 (stereo not shown) [Compound 109, N-(4—(benzylsulfinylmethyl)phenyl)-7—(4-methylphenyl)-2,3-dihydro-1-benzoxepine-4-carboxamide] | 208 to 209
Cc1ccc(-c2ccc3c(c2)C=C(C(=O)Nc2ccc(CNC4CCCCC4)cc2)CCO3)cc1 [Compound 114, N-(4—((cyclohexylamino)methyl)phenyl)-7—(4-methylphenyl)-2,3-dihydro-1-benzoxepine-4-carboxamide] | 183 to 184
Cc1ccc(-c2ccc3c(c2)C=C(C(=O)Nc2ccc(CNc4ccccc4)cc2)CCO3)cc1 [Compound 115, N-(4—((phenylamino)methyl)phenyl)-7—(4-methylphenyl)-2,3-dihydro-1-benzoxepine-4-carboxamide] | 157 to 158
Cc1ccc(-c2ccc3c(c2)C=C(C(=O)Nc2ccc(CNCc4ccccc4)cc2)CCO3)cc1 [Compound 117, N-(4—((benzylamino)methyl)phenyl)-7—(4-methylphenyl)-2,3-dihydro-1-benzoxepine-4-carboxamide] | 147 to 148
Cc1ccc(-c2ccc3c(c2)C=C(C(=O)Nc2ccc(CN(C(C)C)C(C)C)cc2)CCO3)cc1 [Compound 119, N-(4—((diisopropylamino)methyl)phenyl)-7—(4-methylphenyl)-2,3-dihydro-1-benzoxepine-4-carboxamide] | 152 to 153
Cc1ccc(-c2ccc3c(c2)C=C(C(=O)Nc2ccc(CNCC4CCCCC4)cc2)CCO3)cc1 [Compound 122, N-(4—((cyclohexylmethyl)aminomethyl)phenyl)-7—(4-methylphenyl)-2,3-dihydro-1-benzoxepine-4-carboxamide] | 154 to 155
CN1CCN(c2ccc(-c3ccc4c(c3)C=C(C(=O)Nc3ccc(CN(C)C5CCOCC5)cc3)CCO4)cc2)CC1 [Compound 124, 7—(4—(4-methylpiperazin-1-yl)phenyl)-N-(4—((N-tetrahydropyran-4-yl-N-methylamino)methyl)phenyl)-2,3-dihydro-1-benzoxepine-4-carboxamide] | 220 to 221
